Source: patent US11733232B2, “Method for producing disease modeling non-human animal, disease modeling non-human animal, and method for screening drug and method for determining risk of disease using the same” (National University Corporation Hokkaido University, priority 2017, dated 2023)

Assays:
Type in all cases: in vivo, C57BL/6 mice
PVN and DMH neurons = assay: Anti-phosphorylated cfos immunostaining of the hypothalamus (PVN and DMH) after microinjection at the specific blood vessels; conditions: 2 days after
Excerpt: Then, whether local inflammation in the brain causes a disease was investigated by directly injecting an inflammatory cytokine at the specific blood vessels. The head of a C57BL/6 mouse with induction of sleep disorder or a control mouse was fixed to a stereotactic device under anesthesia, fur above the skull was shaved, and the skin was cleaned with 70% ethanol. A 30-gauge needle was lowered toward the specific blood vessels (coordinates: AP −1.06 mm; ML 1 mm; DV 2.25 mm), and EAE-pathogenic CD4 positive T cells (1×10^6 cells)+bone marrow derived dendritic cells pulsed with MOG (5×10^5 cells), IFN-γ (50 ng; PeproTech, Inc.)+IL-17A (50 ng; R&D Systems, Inc.), or IL-6 (50 ng; Toray Industries, Inc.)+IL-17A (50 ng) in 0.2 μL each were microinjected over 90 seconds as described previously (Kim et al. (2011), Mol. Brain, 19, 4-6). […]
(§1) Furthermore, at the specific blood vessels of mice in which sleep disorder was induced, IL-6 and IL-17A, with or without a selective antagonist for P2X receptor which is an ATP receptor, A438079 (1 μg), were microinjected, in the same way as in the Example 3 (2). Phosphorylated cfos in the third ventricular region, bloody stool scores, and mortality were evaluated 2 days after the microinjection, and the results are shown in FIG. 34 and FIG. 35. […]

[1] = tested on: mice in which sleep disorder was induced followed by transfer of EAE-pathogenic CD4 positive T cells; assay: Pathological conditions (EAE clinical score, mortality, fecal occult blood) of disease modeling mice
Description: Loading PAWW stress and induction of sleep disorder thereby were performed as described previously (Miyazaki, K. et al., PloS one, 2013, 8, e55452). 6-8 weeks old C57BL/6 mice were individually maintained in plastic cages with running wheels for habituation. Then, through loading PAWW stress by replacing wood beddings in the cages with water having depth of 1.5 cm to make the mice exercise continuously on the wheel for 2 days, sleep disorder was induced in the mice.
Preparation and transfer of EAE-pathogenic CD4 positive T cells were performed as described previously (Arima, Y. et al., Cell., 2012, 148, 447-457; Arima, Y. et al., eLife, 2015, 4, e08733; Ogura, H. et al., Immunity, 2008, 29, 628-636). Briefly, C57BL/6 mice were injected subcutaneously with a MOG (35-55) peptide (Sigma-Aldrich Co. LLC.) together with complete Freund's adjuvant (Sigma-Aldrich Co. LLC.) at the base of the tail, then 0, 2, and 7 days after MOG peptide injection, the mice were further injected intravenously with pertussis toxin (Sigma-Aldrich Co. LLC.). 9 days after MOG peptide injection, lymphocytes were collected from the spleens of the mice, sorted with anti-CD4 microbeads (Miltenyi Biotec, Inc.) to obtain a cell population rich in CD4 positive T cells. The resulting cell population (4×10^6 cells) was co-cultured with MOG peptide-pulsed irradiated spleen cells (1×10^7 cells) for 2 days in the presence of rIL-23 (10 ng/mL; R & D Systems, Inc.). Cells were collected from the culture medium, enriched with the anti-CD4 microbeads, and EAE-pathogenic CD4 positive T cells were prepared.
2 days after starting stress load described in (i) above, the EAE-pathogenic CD4 positive T cells (1.5×10^7 cells) prepared in (ii) above were transferred to the mice by intravenous injection to produce disease modeling mice. Also, mice into which EAE-pathogenic CD4 positive T cells were transferred without stress load, mice into which EAE-pathogenic CD4 positive T cells were not transferred after stress load, mice without stress load and without EAE-pathogenic CD4 positive T cells transfer, were prepared.
Pathological conditions of EAE in the mice prepared in Example 1 were evaluated with clinical score. Clinical score was determined as described previously (Arima, Y. et al., Cell, 2012, 148, 447-457; Arima, Y. et al., eLife, 2015, 4, e08733; Ogura, H. et al., Immunity, 2008, 29, 628-636). Clinical scores represent the severity of encephalomyelitis symptoms, and the scores increase with increasing the severity. A score of 0 is equivalent to normal state without abnormal findings, and a score of 5 is equivalent to death.
(§2) Pathological conditions of gastroenteritis in the mice prepared in Example 1 (1) were evaluated on 10 days after the transfer of EAE-pathogenic CD4 positive T cells. Stools collected from each mouse were suspended in saline (20 mL/g stool), the supernatants obtained by centrifugation (8000 rpm, 5 minutes) were diluted to 10 times with saline, and fecal occult blood test was performed with Hemastix (Registered) (Siemens Healthcare Pty, Ltd.). Bloody stool scores were calculated according to the scoring method described on the package of Hemastix.

[2] = tested on: specific blood vessels in the boundary area of the third ventricle, thalamus, and dentate gyrus; assay: Cell accumulation at the specific blood vessels of disease modeling mice (immunohistochemistry, flow cytometry); conditions: 0.2 μL of 2 mg/ml microinjected at the specific blood vessels 4 days before T cell transfer; FIG. 22
Excerpt: Accumulation of MHC class II positive cells and CD4 positive T cells in the mice prepared in Example 1 (1) was investigated. The fifth lumbar vertebra and the brain were removed from the mice 10 days after transferring EAE-pathogenic CD4 positive T cells, embedded in SCEM (SECTION-LAB Co., Ltd.), and sliced to sections with a thickness of 10 μm using a microtome device, CM3050 (Leica Microsystems GmbH). Sections were collected using Cryofilm type IIIC (16UF) (SECTION-LAB Co., Ltd.), subjected to hematoxylin eosin staining, or to immunohistochemical staining with an anti-MHC class II antibody or anti-CD4 antibody, and analyzed by BZ-9000 microscope (KEYENCE Corporation) using HS ALL software in BZ-II analyzer (KEYENCE Corporation).
Furthermore, brains were removed from the mice 9 days after transferring EAE-pathogenic CD4 positive T cells, dissected into each parts of the cerebellum and brain stem, cortex, and hippocampus and interbrain, and enzymatically digested with Neural Tissue Dissection kit (Miltenyi Biotec Company) to prepare single cell suspension. […] Then, the cells were analyzed using CyAn flow cytometer (Beckman Coulter Corporation), and the obtained data were analyzed using Summit software (Beckman Coulter Corporation) or FlowJo software (Tree Star, Inc.). […]

[3] = tested on: dopamine/noradrenergic neurons; assay: Immunostaining of third ventricular regions of chemically sympathectomized mice (tyrosine hydroxylase, phosphorylated CREB); conditions: 0.2 μL of 2 mg/ml microinjected at the specific blood vessels 4 days before T cell transfer, 10 days after transfer, FIG. 21
Description: 0.2 μL each of 6-hydroxydopamine (6-OHDA) hydrochloride (2 mg/ml), which is a neurotoxin denaturalizing dopamine/noradrenergic neurons, or a vehicle 0.02% ascorbic acid was microinjected at the specific blood vessels of C57BL/6 mice 4 days before transferring EAE-pathogenic CD4 positive T cells (2 days before stress load), in the same way as in the Example 3 (2). Subsequently, induction of sleep disorder and transfer of EAE-pathogenic CD4 positive T cells were performed in the same way as in the Example 1 (1).
Photographs of the immunostained third ventricular regions of chemically sympathectomized mice 10 days after transferring EAE-pathogenic CD4 positive T cells are shown in FIG. 21. The immunostaining was performed with an anti-tyrosine hydroxylase antibody or anti-phosphorylated CREB antibody. 6-OHDA reduced tyrosine hydroxylase-positive sympathetic neurons, and suppressed phosphorylation of CREB induced by noradrenergic receptor-mediated signal transduction.

[4] = tested on: C57BL/6 mouse with induction of sleep disorder; assay: Microinjection at the specific blood vessels of mice with induced sleep disorder: mortality and bloody stool scores; conditions: 1 μg microinjected together with IL-6 and IL-17A at the specific blood vessels, 2 days after
Description: as §2
Then, whether local inflammation in the brain causes a disease was investigated by directly injecting an inflammatory cytokine at the specific blood vessels. The head of a C57BL/6 mouse with induction of sleep disorder or a control mouse was fixed to a stereotactic device under anesthesia, fur above the skull was shaved, and the skin was cleaned with 70% ethanol. […]
as §1

With `Nc1ncnc2c1ncn2[C@@H]1O[C@H](COP(=O)(O)OP(=O)(O)OP(=O)(O)O)[C@@H](O)[C@H]1O` [ATP] as the compound, how does the “phosphorylated cfos, that is, neural activation, in the PVN and DMH” value (PVN and DMH neurons; microinjected at the specific blood vessels of mice with sleep disorder (IFN-γ+IL-17A 50 ng each; ATP 2 μg), FIG. 30) read?
Its value is “activated”.

`Cc1c(OCC(F)(F)F)ccnc1C[S+]([O-])c1nc2ccccc2[nH]1` (stereo not shown) [lansoprazole] was tested. Which “mortality 10 days after the transfer” value ([1]; 30 mg/kg body weight orally daily after transfer, control CMC, FIG. 6B) did it give?
Its value is “remarkably reduced”.

What about the bloody stool scores ([1]; 30 mg/kg body weight orally daily after transfer, control CMC, FIG. 6C) of the same compound?
Its bloody stool scores is “remarkably reduced”.

And the clinical scores ([1]; 30 mg/kg body weight orally daily after transferring EAE-pathogenic CD4 positive T cells, control carboxymethyl cellulose, FIG. 6A)?
Its clinical scores is “remarkably reduced”.

How did the “accumulation of CD4 positive T cells at the specific blood vessels” value [2] turn out when `Cl.NCCc1cc(O)c(O)cc1O` [6-OHDA, 6-hydroxydopamine hydrochloride] was run?
Its value is “suppressed”.

And the “accumulation of CD11b positive MHC class II-highly expressing cells at the specific blood vessels” value [2]?
The value was “suppressed”.

What about the mortality ([1]; 0.2 μL of 2 mg/ml microinjected at the specific blood vessels 4 days before T cell transfer, 10 days after transfer, FIG. 23B) of the same compound?
Its mortality is “improved”.

What about the clinical scores ([1]; 0.2 μL of 2 mg/ml microinjected at the specific blood vessels 4 days before T cell transfer, FIG. 23A) of the same compound?
Its clinical scores is “improved”.

And the “phosphorylation of CREB” value [3]?
Its value is “suppressed”.

What about the “tyrosine hydroxylase-positive sympathetic neurons” value ([3]; vehicle 0.02% ascorbic acid) of the same compound?
The value was “reduced”.

Which results are given for `NCc1cc(=O)[nH]o1` [Muscimol, muscimol]?
mortality ([1]; 0.25 mg/mL microinjected into the DMH 5 days after T cell transfer, 10 days after transfer, FIG. 29B): remarkably improved; bloody stool scores ([1]; 0.25 mg/mL microinjected into the DMH 5 days after T cell transfer, 10 days after transfer, FIG. 29C): remarkably improved; clinical scores ([1]; 0.25 mg/mL microinjected into the DMH 5 days after T cell transfer, vehicle saline, FIG. 29A): remarkably improved

How did the “neural activation in the PVN and DMH (phosphorylated cfos)” value (PVN and DMH neurons; 1 μg microinjected together with IL-6 and IL-17A at the specific blood vessels of mice with sleep disorder, FIG. 34) turn out when `Clc1cccc(-c2nnnn2Cc2cccnc2)c1Cl` [A438079] was run?
The value was “suppressed”.

What about the mortality ([4]; FIG. 35A) of the same compound?
Its mortality is “improved”.

And the “gastroenteritis (bloody stool scores)” value ([4]; FIG. 35B)?
The value was “improved”.
